Test results from patent US7632933B2, “Corticotropin releasing factor 2 receptor agonists” (priority 2002, dated 2009).
pEC50: −log10 of the molar value. Ends that are not written are not given here. Peptide text beside a SMILES is read from it.

Assays:
CRF2R = molecular target: T1, CRF2R (Homo sapiens, UniProt Q13324); experiment: CRF2R agonist activity (EC50 and Emax), called comparative CRF binding; assay type: cell-based; conditions: CRF2R; read-out: CRF2R EC50
T1 sequence (Q13324 1-411): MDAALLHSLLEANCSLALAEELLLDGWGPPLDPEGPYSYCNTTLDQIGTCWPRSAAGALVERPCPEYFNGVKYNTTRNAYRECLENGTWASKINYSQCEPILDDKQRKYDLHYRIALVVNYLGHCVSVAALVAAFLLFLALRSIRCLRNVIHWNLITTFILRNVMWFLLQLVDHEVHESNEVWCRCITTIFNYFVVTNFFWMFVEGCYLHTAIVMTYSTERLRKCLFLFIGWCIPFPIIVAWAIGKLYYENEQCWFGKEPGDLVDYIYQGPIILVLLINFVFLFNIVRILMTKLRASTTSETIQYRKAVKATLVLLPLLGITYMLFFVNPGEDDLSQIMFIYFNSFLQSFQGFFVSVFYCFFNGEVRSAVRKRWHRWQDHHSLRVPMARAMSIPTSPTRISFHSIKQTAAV
From the text: (§1) The pharmacological activity and selectivity of the peptides of present invention can be determined using published test procedures. See, e.g, U.S. patent application Ser. No. 09/799,978. Because CRF2R and CRF1R are homologous proteins, it is expected that a certain proportion of agonists for CRF2R will also function as agonists of CRF1R. As discussed above, activation of CRF1R induces activation of the HPA axis since increased corticosteroid production leads to skeletal muscle atrophy. In most cases in which an increase in muscle mass or function is desired, it is not desirable to activate the HPA axis.
(§2) Because it is desirable to discriminate binding between CRF2R, as compared with CRF1R, the assays described above may be conducted using a cell, or membrane from a cell, which expresses only CRF2R or the assays can be conducted with a recombinant source of CRF2R. Cells expressing both forms of CRFR may be modified using homologous recombination to inactivate or otherwise disable the CRF1R gene. Alternatively, if the source of CRFR contains more than one CRFR type, the background signal produced by the receptor which is not of interest must be subtracted from the signal obtained in the assay. […] Known antagonists of CRFRs include, but are not limited to, antalarmin (CRF1R selective), antisauvagine-30 (CRF2R selective) and astressin (nonselective for CRF1R/CRF2R).
(§3) Cell-based assays include the steps of contacting cells which express CRF1R or CRF2R with a peptide of the present invention or control and measuring activation of the CRFR by measuring the expression or activity of components of the CRFR signal transduction pathways.
(§4) For example, after contact with a peptide of the present invention, lysates of the cells can be prepared and assayed for induction of cAMP. cAMP is induced in response to Gαs activation. Because Gαs is activated by receptors other than CRFR and because a test peptide may be exerting its effect through CRFRs or by another mechanism, two control comparisons are relevant for determining whether the peptide increases levels of cAMP via activation of a CRFR. One control compares the cAMP level of cells contacted with the peptide and the cAMP level of cells contacted with a control compound (i.e., the vehicle in which the peptide is dissolved).
(§5) In one example, cAMP induction is measured with the use of DNA constructs containing the cAMP responsive element linked to any of a variety of reporter genes can be introduced into cells expressing CRFRs. Such reporter genes include, but are not limited to, chloramphenicol acetyltransferase (CAT), luciferase, glucuronide synthetase, growth hormone, fluorescent proteins (e.g., Green Fluorescent Protein), or alkaline phosphatase. Following exposure of the cells to the peptide, the level of reporter gene expression can be quantitated to determine the peptide's ability to increase cAMP levels and thus determine the peptide's ability to activate the CRFR.
(§6) In addition to using cells expressing full length CRFRs, cells can be engineered which express CRFRs containing the ligand binding domain of the receptor coupled to, or physically modified to contain, reporter elements or to interact with signaling proteins. For example, a wild type CRFR or CRFR fragment can be fused to a G-protein resulting in activation of the fused G-protein upon agonist binding to the CRFR portion of the fusion protein. […] In addition, alternative pathways for induction of the CRE reporter could be eliminated to reduce basal levels.

CRF1R = molecular target: T2, CRF1R (Homo sapiens, UniProt P34998); experiment: CRF1R agonist activity (EC50 and Emax), called comparative CRF binding; assay type: cell-based; conditions: CRF1R; read-out: CRF1R EC50
T2 sequence (P34998 24-415): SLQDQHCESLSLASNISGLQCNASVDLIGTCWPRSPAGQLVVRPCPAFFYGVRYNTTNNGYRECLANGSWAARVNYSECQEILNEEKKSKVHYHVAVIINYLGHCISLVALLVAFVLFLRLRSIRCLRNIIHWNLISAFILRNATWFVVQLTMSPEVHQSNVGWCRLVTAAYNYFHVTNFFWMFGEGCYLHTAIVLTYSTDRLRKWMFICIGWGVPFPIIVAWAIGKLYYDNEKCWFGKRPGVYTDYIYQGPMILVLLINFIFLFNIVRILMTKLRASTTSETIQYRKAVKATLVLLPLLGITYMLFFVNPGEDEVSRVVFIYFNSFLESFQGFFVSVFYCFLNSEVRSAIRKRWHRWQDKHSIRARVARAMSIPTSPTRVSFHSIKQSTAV
From the text: as §1, §2, §3, §4, §5, §6

Row | Compound | pEC50 (CRF2R) | pEC50 (CRF1R)
1 | CC[C@H](C)[C@H](N)C(=O)N[C@H](C(=O)N[C@@H](CC(C)C)C(=O)N[C@@H](CO)C(=O)N[C@@H](CC(C)C)C(=O)N[C@@H](CC(=O)O)C(=O)N[C@H](C(=O)N1CCC[C@H]1C(=O)NCC(=O)N1CCC[C@H]1C(=O)N[C@@H](CC(C)C)C(=O)N[C@@H](CC(C)C)C(=O)N[C@@H](CCC(N)=O)C(=O)N[C@H](C(=O)N[C@@H](CC(C)C)C(=O)N[C@@H](CC(C)C)C(=O)N[C@@H](CCC(=O)O)C(=O)N[C@@H](CCC(N)=O)C(=O)N[C@H](C(=O)N[C@@H](CCCCN)C(=O)N[C@@H](CCC(N)=O)C(=O)N[C@@H](CCC(=O)O)C(=O)N[C@@H](C)C(=O)N[C@@H](C)C(=O)N[C@@H](CCCNC(=N)N)C(=O)N[C@@H](CCC(=O)O)C(=O)N[C@@H](CCC(N)=O)C(=O)N[C@@H](C)C(=O)N[C@H](C(=O)N[C@H](C(=O)N[C@@H](CC(N)=O)C(=O)N[C@@H](C)C(=O)N[C@@H](CCCNC(=N)N)C(=O)N[C@H](C(=O)N[C@@H](CC(C)C)C(=O)N[C@@H](C)C(=O)N[C@@H](CCCNC(=N)N)C(=O)N[C@H](C(N)=O)C(C)C)[C@@H](C)CC)[C@@H](C)O)[C@@H](C)O)[C@@H](C)O)[C@@H](C)CC)C(C)C)C(C)C [compound 5] (H-IVLSLDVPGPLLQILLEQTKQEAAREQATTNARILARV-NH2) | ≤ 7.00 | ≤ 7.00
2 | CC[C@H](C)[C@H](N)C(=O)N[C@H](C(=O)N[C@@H](CC(C)C)C(=O)N[C@@H](CO)C(=O)N[C@@H](CC(C)C)C(=O)N[C@@H](CC(=O)O)C(=O)N[C@H](C(=O)N1CCC[C@H]1C(=O)N[C@H](C(=O)NCC(=O)N[C@@H](CC(C)C)C(=O)N[C@@H](CC(C)C)C(=O)N[C@@H](CCC(N)=O)C(=O)N[C@H](C(=O)N[C@@H](CC(C)C)C(=O)N[C@@H](CC(C)C)C(=O)N[C@@H](CCC(=O)O)C(=O)N[C@@H](CCC(N)=O)C(=O)N[C@@H](C)C(=O)N[C@@H](CCCNC(=N)N)C(=O)N[C@@H](C)C(=O)N[C@@H](CCCNC(=N)N)C(=O)N[C@@H](C)C(=O)N[C@@H](C)C(=O)N[C@@H](CCCNC(=N)N)C(=O)N[C@@H](CCC(=O)O)C(=O)N[C@@H](CCC(N)=O)C(=O)N[C@@H](C)C(=O)N[C@H](C(=O)N[C@H](C(=O)N[C@@H](CCC(N)=O)C(=O)N[C@@H](C)C(=O)N[C@@H](CCCNC(=N)N)C(=O)N[C@H](C(=O)N[C@@H](CC(C)C)C(=O)N[C@@H](C)C(=O)N[C@@H](CCCNC(=N)N)C(=O)N[C@H](C(N)=O)C(C)C)[C@@H](C)CC)[C@@H](C)O)[C@@H](C)O)[C@@H](C)CC)[C@@H](C)CC)C(C)C)C(C)C [compound 9] (H-IVLSLDVPIGLLQILLEQARARAAREQATTQARILARV-NH2) | ≤ 7.00 | ≤ 7.00
3 | CC[C@H](C)[C@H](NC(=O)[C@H](CC(=O)O)NC(=O)[C@H](CC(C)C)NC(=O)[C@H](CC(C)C)NC(=O)[C@H](CCCCN)NC(=O)[C@H](CCCNC(=N)N)NC(=O)[C@H](CC(N)=O)NC(=O)[C@H](CO)NC(=O)[C@H](Cc1c[nH]cn1)NC(=O)[C@H](C)NC(=O)[C@H](CCC(N)=O)NC(=O)[C@H](CCC(N)=O)NC(=O)[C@H](C)NC(=O)[C@H](CC(C)C)NC(=O)[C@H](CCC(N)=O)NC(=O)[C@H](CC(=O)O)NC(=O)[C@H](C)NC(=O)[C@H](CCCCN)NC(=O)[C@@H](NC(=O)[C@H](CCSC)NC(=O)[C@H](CCC(=O)O)NC(=O)[C@H](CC(C)C)NC(=O)[C@@H](NC(=O)[C@H](CCC(=O)O)NC(=O)[C@H](CCCNC(=N)N)NC(=O)[C@H](CC(C)C)NC(=O)[C@H](CC(C)C)NC(=O)[C@H](Cc1c[nH]cn1)NC(=O)[C@H](Cc1ccccc1)NC(=O)[C@@H]1CCCN1C(=O)[C@H](CC(C)C)NC(=O)[C@H](CC(=O)O)NC(=O)[C@H](CC(C)C)NC(=O)[C@H](CO)NC(=O)[C@@H](NC(=O)[C@@H]1CCCN1C(=O)[C@@H]1CCCN1C(=O)[C@H](CCC(=O)O)NC(=O)[C@H](CCC(N)=O)NC(=O)[C@@H](N)CO)[C@@H](C)CC)C(C)C)[C@@H](C)O)C(=O)N[C@@H](C)C(N)=O [compound 104] | ≤ 7.00 | ≤ 7.00
4 | CC[C@H](C)[C@H](N)C(=O)N[C@H](C(=O)N[C@@H](CC(C)C)C(=O)N[C@@H](CO)C(=O)N[C@@H](CC(C)C)C(=O)N[C@@H](CC(=O)O)C(=O)N[C@H](C(=O)N1CCC[C@H]1C(=O)N[C@H](C(=O)NCC(=O)N[C@@H](CC(C)C)C(=O)N[C@@H](CC(C)C)C(=O)N[C@@H](CCC(N)=O)C(=O)N[C@H](C(=O)N[C@@H](CC(C)C)C(=O)N[C@@H](CC(C)C)C(=O)N[C@@H](CCC(=O)O)C(=O)N[C@@H](CCC(N)=O)C(=O)N[C@@H](C)C(=O)N[C@@H](CCCCN)C(=O)N[C@@H](C)C(=O)N[C@@H](CCCNC(=N)N)C(=O)N[C@@H](C)C(=O)N[C@@H](C)C(=O)N[C@@H](CCCNC(=N)N)C(=O)N[C@@H](CCC(=O)O)C(=O)N[C@@H](CCC(N)=O)C(=O)N[C@@H](C)C(=O)N[C@H](C(=O)N[C@H](C(=O)N[C@@H](CC(N)=O)C(=O)N[C@@H](C)C(=O)N[C@@H](CCCNC(=N)N)C(=O)N[C@H](C(=O)N[C@@H](CC(C)C)C(=O)N[C@@H](C)C(=O)N[C@@H](CCCNC(=N)N)C(=O)N[C@H](C(N)=O)C(C)C)[C@@H](C)CC)[C@@H](C)O)[C@@H](C)O)[C@@H](C)CC)[C@@H](C)CC)C(C)C)C(C)C [compound 109] (H-IVLSLDVPIGLLQILLEQAKARAAREQATTNARILARV-NH2; N-terminus assumed) | 7.93 | –
5 | CC[C@H](C)[C@H](N)C(=O)N[C@H](C(=O)N[C@@H](CC(C)C)C(=O)N[C@@H](CO)C(=O)N[C@@H](CC(C)C)C(=O)N[C@@H](CC(=O)O)C(=O)N[C@H](C(=O)N1CCC[C@H]1C(=O)N[C@H](C(=O)NCC(=O)N[C@@H](CC(C)C)C(=O)N[C@@H](CC(C)C)C(=O)N[C@@H](CCC(N)=O)C(=O)N[C@H](C(=O)N[C@@H](CC(C)C)C(=O)N[C@@H](CC(C)C)C(=O)N[C@@H](CCC(=O)O)C(=O)N[C@@H](CCC(N)=O)C(=O)N[C@H](C(=O)N[C@@H](CCCCN)C(=O)N[C@@H](C)C(=O)N[C@@H](CCCNC(=N)N)C(=O)N[C@@H](C)C(=O)N[C@@H](C)C(=O)N[C@@H](CCCNC(=N)N)C(=O)N[C@@H](CCC(=O)O)C(=O)N[C@@H](CCC(N)=O)C(=O)N[C@@H](C)C(=O)N[C@H](C(=O)N[C@H](C(=O)N[C@@H](CC(N)=O)C(=O)N[C@@H](C)C(=O)N[C@@H](CCCNC(=N)N)C(=O)N[C@H](C(=O)N[C@@H](CC(C)C)C(=O)N[C@@H](C)C(=O)N[C@@H](CCCNC(=N)N)C(=O)N[C@H](C(N)=O)C(C)C)[C@@H](C)CC)[C@@H](C)O)[C@@H](C)O)[C@@H](C)O)[C@@H](C)CC)[C@@H](C)CC)C(C)C)C(C)C [compound 117] (H-IVLSLDVPIGLLQILLEQTKARAAREQATTNARILARV-NH2; N-terminus assumed) | 8.03 | –
6 | SQEPPISLDLPLELLREVLEMTKADQLAQQAHSNRKLLDIA-NH2 [compound 89] | ≤ 7.00 | –
